According to patent publication US20130237493A1, “COMBINATION THERAPY OF 4-(CYCLOPROPYLAMINO)-2-(4-(4-(ETHYLSULFONYL)PIPERAZIN-1-YL)PHENYLAMINO)PYRIMIDINE-5-CARBOXAMIDE AND FLUDARABINE” (Portola Pharmaceuticals, Inc., priority 2010, published 2013):

Test system: primary CLL cells
Experiment: tetrazolium-based (MTS) cell viability assay on fresh primary CLL cells
Set-up: species or system human
Details: 10 nM to 10 μM, 3 days
Text: The viability data were normalized to untreated controls and were used to calculate IC50 values.

## CCS(=O)(=O)N1CCN(c2ccc(Nc3ncc(C(N)=O)c(NC4CC4)n3)cc2)CC1 [Compound 2, 4-(cyclopropylamino)-2-(4-(4-(ethylsulfonyl)piperazin-1-yl)phenylamino)pyrimidine-5-carboxamide]
  single agent activity in CLL: single agent activity
